# In patent US9139546B2, “Tri-aryl/heteroaromatic cannabinoids and use thereof” (priority 2007, dated 2015):
# What was measured:
# [1] = tested on: CCL-2; test: CCL-2 reduction in TNF-α treated A549 cells; type: cell-based, human; conditions: A549, 10 ng/mL TNF-α
# [2] = biological target: human CB1 receptor (Homo sapiens (Human), UniProt P21554); test: Receptor binding assay, CB1 ([3H]CP 55,940 displacement); conditions: as repeated in the anti-inflammatory table; read-out: CB-1 Ki
# Method: (§1) The assays were carried out in 96 well plates obtained from Millipore, Inc. fitted with glass fiber filters (hydrophilic, GFC filters) having a pore size of 1.2μ. The filters were soaked with 0.05% polyethyleneimine solution and washed 5× with deionized water prior to carrying out the assays. The filtrations were carried out on a 96 well vacuum manifold (Millipore Inc.), the filters punched out with a pipette tip directly into scintillation vials at the end of the experiment and vials filled with 5 ml scintillation cocktail Ecolite (+) (Fisher Scientific). Counting was carried out on a Beckmann Scintillation Counter model LS6500. Drug solutions were prepared in DMSO and the radioligand was dissolved in ethanol.
# (§2) 50 mM TRIS-HCl, 5 mM MgCl2, 2.5 mM EDTA, 0.5 mg/ml fatty acid free bovine serum albumin, pH 7.4.
# (§3) The membranes were filtered and the filters washed 7× with 0.2 ml ice-cold incubation buffer and allowed to air dry under vacuum.
# (§4) Final data are presented as Ki±S.E.M. of n≧3 experiments.
# [3] = tested on: CXCL-8; test: CXCL-8 level in supernatant of TNF-α treated A549 cells (multiplex bead immunoassay); type: cell-based, human; conditions: A549, 10 ng/mL TNF-α, 18 hours
# Method: (§5) Human lung adenocarcinoma cell line A549 (alveolar type II epithelial-like) cells (ATCC, Manassas, Va.) were maintained in growth media consisting of DMEM supplemented with 10% heat-inactivated fetal calf serum, 2 mM L-glutamine, 100 U/ml penicillin, and 100 μg/ml streptomycin.
# (§6) One day prior to treatment, A549 cells were seeded in 24 well culture plates at 6×10^4 cells/well in 1 mL of DMEM containing 1% FCS. On the day of treatment, media was aspirated. Following PBS wash, 1 mL of media containing 1% FCS, 10 ng/mL TNF-α, and varying concentrations of test compounds was added. Samples were collected at 18 hours and immediately transferred to −80° C. until the day of analysis.
# (§7) Levels of IL-6 and CXCL-8 were measured in cell culture supernatant using the Multiplex Bead Immunoassay Kit (Biosource, Camarillo, Calif.) paired with the Luminex® 200™ System. Standard solutions were prepared by serial dilution in a 50% media, 50% buffer solution so that they were in the same matrix as the samples. Standards and samples were mixed with a solution containing beads coated with capture antibodies specific for IL-6 and CXCL-8. Each capture antibody is bound to a specific bead population with a known internal fluorescence. The Luminex system can differentiate between internal fluorescence of beads allowing detection of multiple analytes in the same well. Following overnight incubation to allow complexation of protein with capture antibodies, wells were washed and beads resuspended in assay buffer. Biotinylated reporter antibodies specific for IL-6 and CXCL-8 were added and incubated for 1.5 hours. Unbound antibodies were removed by washing, and Streptavidin-Phycoerythrin (PE) was added and incubated 30 minutes. Streptavidin binds to biotin on the reporter antibodies. Unbound reagents were removed and samples were analyzed by the Luminex system. This system utilizes a flow cytometry system and lasers capable of exciting the internal dyes of the beads and PE. The machine separates signals from beads with different internal fluorescence and measures fluorescence intensity from PE bound to these beads through protein-antibody interactions. This fluorescence intensity is reported as the median of 100 beads per cytokine in each well. Concentrations were interpolated by fitting fluorescence intensity from unknowns to the standard curves.
# (§8) Cells treated with the pro-inflammatory cytokine TNF-α increase production of IL-6 and CXCL-8 when compared to cells not treated with TNF-α. Cells treated with anti-inflammatory compounds block the inflammatory effect of TNF-α and produce IL-6 and CXCL-8 levels similar to cells that are not treated with TNF-α.
# [4] = biological target: human CB2 receptor (Homo sapiens (Human), UniProt P34972); test: Receptor binding assay, CB2 ([3H]CP 55,940 displacement); conditions: for Ki: as repeated in the anti-inflammatory table, read-out: CB-2 Ki; for CB1/CB2: ratio of Ki CB-1 to Ki CB-2
# Method: as §1, §2, §3, §4
# [5] = tested on: NF-κB; test: NF-κB SEAP reporter assay in TNF-α treated A549 cells; type: cell-based; conditions: Homo sapiens, read-out: NF-κB Reduction
# Method: as §5
# The plasmid pNF-κB-SEAP-NPT was kindly provided by Dr. Y. S. Kim of the Seoul National University. This plasmid contains a secreted alkaline phosphatase (SEAP) reporter gene coupled with the κB response element. Upon activation, NF-κB translocates to the nucleus and binds to the κB response element causing transcriptional activation. This activation drives production of the SEAP reporter, which is secreted into the cell culture supernatant where it can be measured. The neomycin phosphotransferase (NPT) region of the plasmid provides resistance to the antibiotic G-418.
# A549 cells were stably transfected with pNF-κB-SEAP-NPT using GeneJammer Transfection Reagent (Stratagene, La Jolla, Calif.) per manufacturer's protocol. G-418 (500 μg/ml) was added 24 hrs after transfection to select for stable transfection of NF-κB. Resistant colonies were selected and maintained in growth media supplemented with 500 μg/ml G-418.
# Previous experiments have shown A549 cells respond to the pro-inflammatory cytokine TNF-α by activation of the pro-inflammatory transcription factor, NF-κB. This effect is dose dependent with the maximum effect seen at 10 ng/mL TNF-α. Compounds with anti-inflammatory activity can be used to inhibit this activation of NF-κB.
# One day prior to treatment, transfected cells were seeded in 24 well culture plates at 6×10^4 cells/well in 1 mL of DMEM containing 1% FCS. On the day of treatment, media was aspirated. Following PBS wash, 1 mL of media containing 1% FCS, 10 ng/mL TNF-α, and varying concentrations of test compounds was added. Cell culture supernatant was collected at 18 hours. SEAP production was measured in 50 μL of supernatant using the Great EscAPe™ chemiluminescence kit (Clontech, Mountain View, Calif.). Briefly, samples were incubated at 65° C. for 30 minutes to inactivate endogenous alkaline phosphate. Following a 5-minute equilibration with assay buffer, chemiluminescent substrate and enhancer was added. Chemiluminescence was measured after 10 minutes. Higher levels of chemiluminescence result from increased SEAP production and correspond to NF-κB activity. Compounds capable of inhibiting NF-κB activation due to TNF-α are determined by a reduction in chemiluminescence values when cells are treated with TNF-α and test compound versus cells treated with TNF-α alone.
# [6] = tested on: H69AR lung cancer cells; test: Anti-cancer activity, WST-8 cell viability, H69AR; type: cell-based; conditions: Homo sapiens, cell death at 18 hours, WST-8, n.a. = no activity, read-out: H69AR lung EC50
# Method: (§9) A representative group of compounds (shown below) was tested for anti-cancer activity against human lung (DMS-135 and H69AR), prostate (DU-145), colorectal (HCT-15), and pancreatic (BxPC-3) cancer cell lines using the methodology described below, providing results shown in Table 3.
# (§10) Human cancer cells DU-145, DMS-135, H69AR, HCT-15, and BxPC-3 (American Type Culture Collection, ATCC) were cultured in supplemented media according to the recommendations of the supplier. Cells lines were plated in 96-well flat-bottom plates at 70% confluency in a 100 μl total volume of supplemented media as indicated, and incubated overnight at 37° C. to allow for adherence. The cultures were inoculated with escalating amounts of drug and cell death was analyzed at 18 hours, using the BioTek Synergy 2 Multidetection Microplate Reader. The percentage of viable cells present in the culture at each time point was calculated by comparing the absorbance value at 450 nm from the WST-8 assay (Pojindo Molecular Technologies) for each condition with untreated control cells.
# [7] = tested on: IL-6; test: IL-6 level in supernatant of TNF-α treated A549 cells (multiplex bead immunoassay); type: cell-based, human; conditions: 1 μM compound; A549, 10 ng/mL TNF-α, 18 hours
# Method: as §5, §6, §7, §8
# [8] = tested on: BxPC-3 pancreatic cancer cells; test: Anti-cancer activity, WST-8 cell viability, BxPC-3; type: cell-based; conditions: Homo sapiens, BXPC-3; cell death at 18 hours, WST-8; n.a. = no activity; read-out: BxPC-3 pancreatic EC50
# Method: as §9, §10
# [9] = tested on: HCT-15 colorectal cancer cells; test: Anti-cancer activity, WST-8 cell viability, HCT-15; type: cell-based; conditions: Homo sapiens, HCT-15; cell death at 18 hours, WST-8; n.a. = no activity; read-out: HCT-15 colorectal EC50
# Method: as §9, §10
# [10] = tested on: DMS-135 lung cancer cells; test: Anti-cancer activity, WST-8 cell viability, DMS-135; type: cell-based; conditions: Homo sapiens; cell death at 18 hours, WST-8; n.a. = no activity; read-out: DMS-135 lung EC50
# Method: as §9, §10
# [11] = tested on: DU-145 prostate cancer cells; test: Anti-cancer activity, WST-8 cell viability, DU-145; type: cell-based; conditions: Homo sapiens, DU-145; cell death at 18 hours, WST-8; n.a. = no activity; read-out: DU-145 prostate EC50
# Method: as §9, §10
# Chain of human CB1 receptor (P21554 whole entry): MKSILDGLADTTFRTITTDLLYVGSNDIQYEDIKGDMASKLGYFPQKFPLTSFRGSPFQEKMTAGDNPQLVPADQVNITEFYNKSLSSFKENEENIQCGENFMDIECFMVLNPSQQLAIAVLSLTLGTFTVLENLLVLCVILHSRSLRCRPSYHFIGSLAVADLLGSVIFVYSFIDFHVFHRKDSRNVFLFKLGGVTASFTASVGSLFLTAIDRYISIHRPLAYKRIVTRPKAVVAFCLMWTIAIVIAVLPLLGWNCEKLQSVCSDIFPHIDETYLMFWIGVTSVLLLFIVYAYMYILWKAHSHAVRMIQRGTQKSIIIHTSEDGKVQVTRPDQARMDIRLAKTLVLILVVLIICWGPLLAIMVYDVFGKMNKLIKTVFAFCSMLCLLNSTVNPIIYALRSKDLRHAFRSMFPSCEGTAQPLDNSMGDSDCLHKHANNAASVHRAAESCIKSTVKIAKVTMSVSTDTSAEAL
Compound,CCL-2 Reduction ([1]; 10 nM compound) [%],Ki [2] [nM],CXCL-8 Reduction ([3]; 1 nM compound) [%],CXCL-8 Reduction ([3]; 10 nM compound) [%],Ki [4] [nM],CB1/CB2 [4],"inhibition at 0.001 µM ([5]; 1 nM compound, A549, 10 ng/mL TNF-α, 18 hours) [%]","inhibition at 0.01 µM ([5]; 10 nM compound, A549, 10 ng/mL TNF-α, 18 hours) [%]",CCL-2 Reduction ([1]; 100 nM compound) [%],CXCL-8 Reduction ([3]; 100 nM compound) [%],"inhibition at 0.1 µM ([5]; A549, 18 h) [%]",EC50 [6] [nM],IL-6 Reduction [7] [%],EC50 [8] [nM],EC50 [9] [nM],CXCL-8 Reduction ([3]; 1 μM compound) [%],EC50 [10] [nM],"inhibition at 1 µM ([5]; 1 μM compound, A549, 10 ng/mL TNF-α, 18 hours) [%]",EC50 [11] [nM]
"COc1cc(C(=O)c2ccccc2)cc(O)c1-c1cccc(C)c1 [Compound 27, (2-Hydroxy-6-methoxy-3′-methyl-biphenyl-4-yl)-phenyl-methanone]",32 ± 9,> 1000,50,27 ± 15,225,4.44,45,38 ± 10,–,–,–,–,–,–,–,–,–,–,–
"Cc1cccc(-c2c(O)cc(C(=O)c3ccccc3)cc2O)c1 [Compound 26, (2,6-Dihydroxy-3′-methyl-biphenyl-4-yl)-phenyl-methanone]",–,983,–,–,159 ± 2.92,6.18,–,–,61 ± 19,59 ± 5,67 ± 9,–,–,–,–,–,–,–,–
"O=C(c1ccccc1)c1cc(O)c(-c2cc(Cl)cc(Cl)c2)c(O)c1 [Compound 28, (3′,5′-dichloro-2,6-dihydroxybiphenyl-4-yl)(phenyl)methanone]",–,27,–,–,2.94,9.18,–,–,–,–,–,2400,15,4000,800,5,11800,35,5400
